Reference: article PMC7099627, “Design, synthesis, heme binding and density functional theory studies of isoindoline-dione-4-aminoquinolines as potential antiplasmodials” (Future Medicinal Chemistry, 2019)
Like-named read-outs stand apart in the source and are kept apart here.

What was measured:
[1] = system: chloroquine-resistant W2 strain of Plasmodium falciparum; assay: Antiplasmodial activity, growth inhibition by flow cytometry; format: cell-based
Description: The compounds were added from DMSO stocks; the maximum concentration of DMSO used was 0.1%. Controls without inhibitors included 0.1% DMSO. […] Fixed parasites were then transferred to 0.1% Triton X-100 in phosphate-buffered saline containing 1 nM YOYO-1 dye (Molecular Probes, MA, USA). Parasitemia was determined from dot plots (forward scatter vs fluorescence) acquired on a FACSort flow cytometer using Cell Quest software (Beckton Dickinson, NJ, USA). IC50 values for growth inhibition were determined from plots of percent control parasitemia over inhibitor concentration using the Prism 5.0 program (GraphPad Software, CA, USA), with data from duplicate experiments fitted by nonlinear regression.
The synthesized C4/C5substituted-isoindoline-1,3-diones-4-aminoquinolines were screened for their antiplasmodial activity against CQR (W2) strain of P. falciparum (Table 1).

[2] = system: Vero cells; assay: Cytotoxicity assay (resazurin cell viability); format: cell-based; settings: for SI (selectivity index): Vero cytotoxicity vs W2 antiplasmodial IC50
Description: (§1) Cell viability was determined using Vero cells (ATCC, Sigma, Munich, Germany), which were grown in RPMI medium (Gibco) supplemented with 10% decomplemented fetal calf serum under 5% CO2 atmosphere.

[3] = Cytotoxicity assay (resazurin cell viability); format: cell-based; settings: African green monkey; mammalian Vero cells, 24 h incubation, resazurin
Description: as §1

[4] = Heme-binding spectrophotometric titration (HypSpec); settings: 40% aq. DMSO, heme 12 μM
Description: The resultant 40% DMSO solutions maintain the hematin solutions in the monomeric state at concentrations used. […] All the working solutions were kept in dark to avoid photo-sensitivity. Diluent solutions were prepared by dissolving 1 mL of 0.02 M HEPES and 4 mL of spectroscopic grade DMSO and made up to a final volume of 10 mL with ultrapure, HPLC grade Hipersolv water.

[5] = chloroquine-resistant W2 strain, 48 h incubation, read-out: IC50
[6] = Plasmodium falciparum, W2, 48 h, chloroquine-resistant W2 strain, 48 h incubation, read-out: IC50
[7] = mammalian Vero cells, 24 h incubation, resazurin, read-out: IC50 (μM cytotoxicity)
[8] = Plasmodium falciparum, W2, chloroquine-resistant W2 strain, Figure 1, read-out: IC50

SMILES	IC50 [1, 6]	SI (selectivity index) [2]	IC50 [2, 7]	IC50 at 24 h [3]	also measured
O=C1c2cccc(N3CCCCC3)c2C(=O)N1CCNc1ccnc2cc(Cl)ccc12 [4a]	–	–	–	–	IC50 [1, 5]: 158 nM; IC50 [2]: < 28.8 µM
O=C1c2cccc(N3CCCCC3)c2C(=O)N1CCCNc1ccnc2cc(Cl)ccc12 [4b]	162 nM	344.4	55.8 µM	–	–
O=C1c2cccc(N3CCCCC3)c2C(=O)N1CCCCNc1ccnc2cc(Cl)ccc12 [4c, 2-(4-((7-chloroquinolin-4-yl)amino)butyl)-4-(piperidin-1-yl)isoindoline-1,3-dione]	50 nM	1060.7	54.1 µM	–	IC50 [1, 5]: 51 nM
O=C1c2cccc(N3CCCCC3)c2C(=O)N1CCCCCCNc1ccnc2cc(Cl)ccc12 [4d, 2-(6-((7-chloroquinolin-4-yl)amino)hexyl)-4-(piperidin-1-yl)isoindoline-1,3-dione]	75 nM	2720	204 µM	–	–
O=C1c2ccc(N3CCCCC3)cc2C(=O)N1CCNc1ccnc2cc(Cl)ccc12 [4e]	–	–	–	–	IC50 [1, 5]: 163 nM; IC50 [2]: < 28.8 µM
O=C1c2ccc(N3CCCCC3)cc2C(=O)N1CCCNc1ccnc2cc(Cl)ccc12 [4f, 2-(3-((7-chloroquinolin-4-yl)amino)propyl)-5-(piperidin-1-yl)isoindoline-1,3-dione]	176 nM	317	55.8 µM	–	–
O=C1c2ccc(N3CCCCC3)cc2C(=O)N1CCCCNc1ccnc2cc(Cl)ccc12 [4g]	77 nM	–	–	< 27 µM	–
O=C1c2ccc(N3CCCCC3)cc2C(=O)N1CCCCCCNc1ccnc2cc(Cl)ccc12 [4h]	–	–	–	–	IC50 [1, 5]: 123 nM; IC50 [2]: < 25.5 µM
O=C1c2cccc(N3CCOCC3)c2C(=O)N1CCNc1ccnc2cc(Cl)ccc12 [4i]	180 nM	–	–	< 28.6 µM	–
O=C1c2cccc(N3CCOCC3)c2C(=O)N1CCCNc1ccnc2cc(Cl)ccc12 [4j]	276 nM	805	222 µM	–	–
O=C1c2cccc(N3CCOCC3)c2C(=O)N1CCCCNc1ccnc2cc(Cl)ccc12 [4k, 2-(4-((7-chloroquinolin-4-yl)amino)butyl)-4-morpholinoisoindoline-1,3-dione]	71 nM	1517	108 µM	–	–
O=C1c2cccc(N3CCOCC3)c2C(=O)N1CCCCCCNc1ccnc2cc(Cl)ccc12 [4l]	25 nM	–	50.8 µM	–	–
O=C1c2ccc(N3CCOCC3)cc2C(=O)N1CCNc1ccnc2cc(Cl)ccc12 [4m, 2-(2-((7-chloroquinolin-4-yl)amino)ethyl)-5-morpholinoisoindoline-1,3-dione]	370 nM	–	–	< 28.6 µM	–
O=C1c2ccc(N3CCOCC3)cc2C(=O)N1CCCNc1ccnc2cc(Cl)ccc12 [4n]	118 nM	1883	222 µM	–	–
O=C1c2ccc(N3CCOCC3)cc2C(=O)N1CCCCNc1ccnc2cc(Cl)ccc12 [4o, 2-(4-((7-chloroquinolin-4-yl)amino)butyl)-5-morpholinoisoindoline-1,3-dione]	49 nM	–	–	< 26.9 µM	–
O=C1c2ccc(N3CCOCC3)cc2C(=O)N1CCCCCCNc1ccnc2cc(Cl)ccc12 [4p]	19 nM	–	–	< 25.4 µM	–
O=C1c2ccc(N3CCN(CCO)CC3)cc2C(=O)N1CCNc1ccnc2cc(Cl)ccc12 [4q]	44 nM	–	–	< 26 µM	–
O=C1c2ccc(N3CCN(CCO)CC3)cc2C(=O)N1CCCNc1ccnc2cc(Cl)ccc12 [4r, 2-(3-((7-chloroquinolin-4-yl)amino)propyl)-5-(4-(2-hydroxyethyl)piperazin-1-yl)isoindoline-1,3-dione]	–	–	–	< 25.3 µM	IC50 [1, 8]: 6.6 nM; activity relative to CQ (fold higher) ([1]; antiplasmodial activity vs CQ): ~12 fold; IC50 [1, 5]: 6 nM; Monomeric Heme log K ([4]; pH 5.6 (MES buffer)): 5.41; Monomeric Heme log K ([4]; pH 7.4 (HEPES buffer)): 5.14
O=C1c2ccc(N3CCN(CCO)CC3)cc2C(=O)N1CCCCNc1ccnc2cc(Cl)ccc12 [4s, 2-(4-((7-chloroquinolin-4-yl)amino)butyl)-5-(4-(2-hydroxyethyl)piperazin-1-yl)isoindoline-1,3-dione]	14 nM	–	–	< 24.6 µM	–
O=C1c2ccc(N3CCN(CCO)CC3)cc2C(=O)N1CCCCCCNc1ccnc2cc(Cl)ccc12 [4t]	15 nM	–	–	< 23.3 µM	–
C[C@@H]1CC[C@H]2[C@@H](C)C(=O)O[C@@H]3O[C@@]4(C)CC[C@@H]1[C@]32OO4 [ART, Artemisinin, reference compound]	5 nM	–	–	–	IC50 [1, 8]: 5.3 nM
CCN(CC)CCCC(C)Nc1ccnc2cc(Cl)ccc12 (stereo not shown) [CQ, Chloroquine, reference compound]	–	–	–	–	IC50 ([1]; Plasmodium falciparum, W2, 48 h): 79 nM
